Data reported in patent publication US8048926B2, “L-DOPA amide derivatives and uses thereof” (Yissum Research Development Company of the Hebrew …, priority 2003, dated 2011).
Where “and” joins values, the source holds several entries; their conditions need not be identical. Identical values can stand only once.

Experiments:
[1] = system: unilaterally 6-hydroxydopamine-lesioned male rats; assay: Rotation experiments (rotometer), LDA administered intravenously; type: in vivo, rat; conditions: for CCW (counter clockwise rotations) / CW (clockwise rotations) / CW − CCW: carbidopa 4 mg/kg ip 15 minutes before, one line per rat, preliminary
Procedure: (§1) The in vivo activity of LDA administered intravenously (iv) and intraperitoneally (ip) was evaluated using rotations experiments, conducted and based in accordance with published studies, as follows:
(§2) Briefly, Dunnet's experiment uses PD induced animal models which are treated with a unilateral lesion to the brain that effects their motorial behavior. In case of rats, they turn away from the side of the lesion when treated with an agent which increases the dopamine brain level. In order to quantify this effect, a device called rotometer is used, which records the circling behavior of the tested rat by counting the number of clockwise (CW) and counter clockwise (CCW) rotations the animal is turning in a hemisphere-shaped bowl which encourages a circling behavior.
(§3) Thus, twenty unilaterally 2,4,5-trihydroxyphenethylamine (6-hydroxydopamine)-lesioned male rats, weighing about 300 grams (obtained from Harlan, Rehovoth Israel) were treated with LDA and carbidopa, as is detailed hereinbelow. […] Pharmacol Toxicol. 93(2):66-70].
(§4) Treatment was performed by intravenously or intraperitoneally administering the LDA.
Intravenous (iv) Experiments: Rats were intravenously injected with 24 mg/kg or 40 mg/kg LDA. All rats received 4 mg/kg carbidopa, intraperitoneally, 15 minutes before LDA administration.

[2] = system: unilaterally 6-hydroxydopamine-lesioned male rats; assay: Rotation experiments (rotometer), LDA administered intraperitoneally; type: in vivo, rat
Procedure: as §1, §2, §3, §4
Intraperitoneal Experiments: Four rats were treated with 6-hydroxydopamine (8 μg/rat). Rats were then administered with carbidopa (4 mg/kg i.p), and 15 minutes thereafter with 15 mg/kg LDA, administered intraperitoneally. Immediately after LDA injection the rotometer was activated and the rats were monitored during 3 hours.

[3] = target: T1, DOPA decarboxylase (Mus musculus, UniProt O88533); assay: DOPA-decarboxylase assay (substrate test); type: biochemical; design: activity of DOPA decarboxylase with the substance as substrate: unit not given here; conditions: mouse striatum enzyme
T1 construct: using the mouse striatum as a source of the decarboxylase enzyme; from tissue; host or cells: mouse striatum
T1 sequence (O88533 1-480): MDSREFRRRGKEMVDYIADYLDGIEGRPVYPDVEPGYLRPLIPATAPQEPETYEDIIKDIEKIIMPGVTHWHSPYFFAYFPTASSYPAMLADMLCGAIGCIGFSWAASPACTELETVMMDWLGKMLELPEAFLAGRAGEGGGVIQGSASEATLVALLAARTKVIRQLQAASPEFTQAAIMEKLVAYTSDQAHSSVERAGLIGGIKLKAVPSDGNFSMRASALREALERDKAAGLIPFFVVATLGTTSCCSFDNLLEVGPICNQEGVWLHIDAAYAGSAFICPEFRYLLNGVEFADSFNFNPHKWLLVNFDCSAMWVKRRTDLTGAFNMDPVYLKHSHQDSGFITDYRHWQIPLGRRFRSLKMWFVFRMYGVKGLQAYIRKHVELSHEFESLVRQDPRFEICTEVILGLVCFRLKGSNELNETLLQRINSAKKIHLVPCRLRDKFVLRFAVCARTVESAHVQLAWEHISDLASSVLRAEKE
Procedure: DOPA-decarboxylase assay: As discussed hereinabove, one of the limitations associated with treatment with L-DOPA is its decarboxylation in the periphery by a DOPA decarboxylase, which reduces the amount the amount of L-DOPA that crosses the BBB.
The assay was carried out according to Hadjiconstantinou et al. [Aromatic L-amino acid decarboxylase activity of mouse striatum is modulated via dopamine receptors. J Neurochem. 1993 June; 60(6):2175-80], using the mouse striatum as a source of the decarboxylase enzyme.
The activity of the DOPA decarboxylase was thus tested with L-DOPA, DOPA-ethyl ester and LDA. L-DOPA ethyl ester (Compound 1), known as a much poorer substrate of the decarboxylase, served as a control was used as a control in these assays.

[4] = cited from earlier work
[5] = cited from earlier work; remark: listed apart in the source
[6] = LDA 15 mg/kg ip, carbidopa 4 mg/kg ip 15 minutes before, monitored during 3 hours, one line per rat, preliminary

| SMILES | substrate of DOPA decarboxylase, in words [3] | activity of DOPA decarboxylase with the substance as substrate ([3]; Substrate 50 micromoles) | activity of DOPA decarboxylase with the substance as substrate ([3]; Substrate 100 micromoles) | activity of DOPA decarboxylase with the substance as substrate ([3]; Substrate 150 micromoles) | activity of DOPA decarboxylase with the substance as substrate ([3]; Substrate 250 micromoles) | activity of DOPA decarboxylase with the substance as substrate ([3]; Substrate 500 micromoles) | activity of DOPA decarboxylase with the substance as substrate ([3]; Substrate 1000 micromoles) | water solubility [5] | further results |
| --- | --- | --- | --- | --- | --- | --- | --- | --- | --- |
| NC(=O)[C@@H](N)Cc1ccc(O)c(O)c1 [LDA + Carbidopa] | – | – | – | – | – | – | – | – | CCW (counter clockwise rotations) ([1]; LDA 24 mg/kg iv): 128 and 134; CW (clockwise rotations) ([1]; LDA 24 mg/kg iv): 686 and 629; CW − CCW ([1]; LDA 24 mg/kg iv): 558 and 495; CCW (counter clockwise rotations) ([1]; LDA 40 mg/kg iv): 724 and 14 and 59; CW (clockwise rotations) ([1]; LDA 40 mg/kg iv): 1563 and 970 and 573; CW − CCW ([1]; LDA 40 mg/kg iv): 839 and 956 and 514; CCW (counter clockwise rotations) [2, 6]: 22 and 50 and 74 and 109; CW (clockwise rotations) [2, 6]: 56 and 361 and 123 and 111; CW − CCW [2, 6]: 34 and 311 and 49 and 2 |
| NC(=O)C(N)Cc1ccc(O)c(O)c1 (stereo not drawn) [LDA, α-amino-3,4-dihydroxy-benzenepropanamide] | not a substrate | – | – | – | – | – | – | – | effect of co-administration of carbidopa on the activity of LDA ([1]; increasing relative amount of carbidopa with respect to LDA): positively affect the activity of LDA; duration of the rotation effect ([1]; intravenous LDA together with carbidopa, data not shown): more than 2 hours; improving the behavior of lesioned animals ([2]; LDA administered intraperitoneally): highly active; activity of the enzyme (formation of dopamine) with the substance as substrate, in words ([3]; assay performed twice): No activity of the enzyme was detected |
| CCOC(=O)[C@@H](N)Cc1ccc(O)c(O)c1 [Compound 1, L-DOPA ethyl ester] | poor substrate | 227 | 278 | 328 | 371 | 357 | 350 | highly water-soluble | hydrolysis to L-DOPA before reaching the brain ([4]; in vivo): fast hydrolysis |
| N[C@@H](Cc1ccc(O)c(O)c1)C(=O)O [L-DOPA, 3,4-dihydroxy-L-phenylalanine] | – | 3241 | 3839 | 3828 | 4332 | 4612 | 3933 | poor water solubility | share of administered levodopa that enters the brain unaltered ([4]; peripheral administration): 1-3% |
